According to US6887882B2, “Pharmaceutical compositions comprising chelidonine or derivatives thereof” (priority 2002, dated 2005):

What was measured:
[1] = target: T1, hKv1.5 channel (Homo sapiens, UniProt P22460); experiment: Block of hKv1.5 channel currents expressed in Ltk-cells (whole cell patch clamp); assay type: cell-based
T1 construct: expressed in transfected cells; host or cells: mouse Ltk- cells (pMSVneo vector, G418 selection)
Experimental: Cell line selectively expressing a specific cardiac K^+ channel gene was prepared according to the method described in the thesis (Yang, et al., Inhibition of cardiac potassium currents by the vesnarinone analog OPC-18790: comparison with quinidine and dofetilide. J Pharmacol Exp Ther. 1997, 280: 1170-1175; Kwak, et al., Phosphorylation is required for alteration of Kv1.5 K^+ channel function by the Kvbeta 1.3 subunit. J Biol Chem 1999, 274: 25355-25361).
First, cDNAs for human cardiac K^+ channel genes such as hKv 1.5 and HERG were subcloned into pMSVneo which contain dexamethasone-inducible murine mammary tumor virus promoter controlling transcription of the inserted cDNA and a gene conferring neomycin resistance driven by the SV40 early promotor. The cDNA-containing expression vector was transfected into mouse Ltk-cells with lipofectamine. After 24 hours, the cells selection with […] of G418 was performed for 2 weeks or until discrete foci formed. Individual foci were isolated, maintained in 0.25 μg/ml of G418, and screened by Norhtern analysis and electrophysiological analysis. Transfected cells were cultured in Dulbeco's modified Eagle medium (DMEM) supplemented with 10% horse serum and 0.25 μg/ml of G418, under 5% CO2. Transiently transfected cells were cultured in DMEM media supplemented with only 10% horse serum, differently from stable cell lines.
(§1) Currents in human atrial myocytes and cell lines were recorded by using the whole cell configuration of the gigaohm-seal patch clamp techniques (Kwak, et al., Phosphorylation is required for alteration of Kv1.5 K^+ channel function by the Kvbeta 1.3 subunit. J Biol Chem 1999, 274: 25355-25361). First, electrical signals were amplified with a patch clamp amplifier (Axon Instruments, Axopatch-1D, Foster, USA). Currents were digitized by a signal converter (Digidata 1200, Axon Instruments) and stored on the hard disk of a computer. The micropipette with a resistance of 1˜2MΩ (Kimax-51, 1.5=14 1.8×10 mm) for current recording, was pulled out by a 2-stage pipette puller (Narishige, PP-83). The intracellular pipette-filling solution for whole cell mode contained 100 mM KCl, 10 mM HEPES, 5 mM K4BAPTA, 5 mM K2ATP and 1 mM MgCl2 (pH 7.2). The extracellular solution contained 130 mM NaCl, 4 mM KCl, 1.8 mM CaCl2, 1 mM MgCl2, 10 mM HEPES and 10 mM glucose (pH 7.35).
The current traces were recorded with a depolarizing pulse of +50 mV from a holding potential of −80 mV, followed by a repolarizing pulse of −50 mV in the Ltk-cells. To observe the concentration-dependent block of hKv1.5 channel currents by each compound, steady-state currents taken at the end of the depolarizing pulse of +50 mV were normalized to the control obtained in the absence of each compound
FIG. 1e is concentration-response curves showing the relative steady-state currents obtained at the end of the depolarizing pulse against the concentration of each compound. Data were fitted with a Hill equation.
IC50 values (50% inhibitory concentration, μM) of compounds 1˜14 on the hKv1.5 channel currents were determined, and Hill values were calculated from the concentration-response curves of the respective compounds using the Hill equation.

[2] = target: T1, hKv1.5 channel; experiment: Channel state-dependency of hKv1.5 block (tail currents); assay type: cell-based; conditions: 10 μM; tail currents at -50 mV after +50 mV pulse
Source text: We tested the channel state-dependency of hKv1.5 block by chelidonine (FIG. 3).
Under control conditions, the tail currents were rapidly deactivated.

[3] = target: T1, hKv1.5 channel; experiment: Voltage-dependent block of hKv1.5 channel currents expressed in Ltk-cells; assay type: cell-based; conditions: 10 μM
Source text: To quantify the voltage-dependent block of chelidonine (compound 1), the relative steady state current, Ichelidonine/Icontrol was plotted as a function of membrane potential (FIG. 2). The steady-state currents were obtained at the end stage of 250 ms depolarizing pulses, while increasing the membrane voltage by 10 mV from −80 to +60 mV. The dotted line denotes the activation curve of hKv1.5 channel current expressed in Ltk-cells.

[4] = test system: mouse; conditions: intravenously; cited from earlier work
[5] = test system: K+ channel current in human atrial myocytes; experiment: Effect on the K+ current in human atrial myocytes (whole cell patch clamp); assay type: cell-based
Experimental: as §1
Isolation of human atrial myocytes was carried out by the Wang, et al.'s method (Effects of flecainide, quinidine, and 4-aminopyridine on transient outward and ultrarapid delayed rectifier currents in human atrial myocytes. J Pharmacol Exp Ther 1995, 272: 184-196). Specimens of human right atrial appendage were obtained from the hearts of patients undergoing cardiopulmonary bypass surgery. […]

T1 sequence (P22460 whole entry): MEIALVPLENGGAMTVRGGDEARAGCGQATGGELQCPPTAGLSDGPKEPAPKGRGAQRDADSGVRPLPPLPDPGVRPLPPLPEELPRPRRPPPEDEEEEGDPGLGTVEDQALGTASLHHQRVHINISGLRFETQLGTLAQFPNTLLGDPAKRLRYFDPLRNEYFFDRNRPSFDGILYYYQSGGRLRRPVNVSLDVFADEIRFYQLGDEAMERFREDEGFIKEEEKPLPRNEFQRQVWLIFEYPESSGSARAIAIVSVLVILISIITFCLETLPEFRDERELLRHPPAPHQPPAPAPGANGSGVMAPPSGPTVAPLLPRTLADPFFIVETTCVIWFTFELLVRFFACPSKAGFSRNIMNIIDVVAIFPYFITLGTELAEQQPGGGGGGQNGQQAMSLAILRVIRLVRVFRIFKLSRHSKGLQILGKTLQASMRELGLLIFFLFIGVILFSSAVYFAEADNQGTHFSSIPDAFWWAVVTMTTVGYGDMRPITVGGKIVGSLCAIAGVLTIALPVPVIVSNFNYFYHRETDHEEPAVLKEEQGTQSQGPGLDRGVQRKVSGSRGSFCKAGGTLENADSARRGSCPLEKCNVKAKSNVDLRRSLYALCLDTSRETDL

CN1Cc2c(ccc3c2OCO3)[C@@H]2[C@H]1c1cc3c(cc1C[C@@H]2O)OCO3 [Compound 1, [5bR-(5bα,6β,12bα)]-5b,6,7,12b,13, 14-hexahydro-13-methyl[1,3]benzodioxolo[5,6c]-1,3-dioxolo[4,5-i]phenanthridin-6-ol]
Hill value ([1]; from concentration-response curves using the Hill equation): 1.07 | type of hKv1.5 block ([1]; hKv1.5 expressed in Ltk-cells, FIGS. 1a to 1e): predominantly blocked the open ion channels | effect on the hKv1.5 channel currents ([1]; hKv1.5 expressed in Ltk-cells, FIGS. 1a to 1d): concentration-dependent inhibitory effects | IC50 ([1]; hKv1.5 expressed in Ltk-cells, steady-state current at end of +50 mV depolarizing pulse, holding -80 mV): 11.5 ± 3.1 µM | channel state-dependency of hKv1.5 block [2]: acts as an open channel blocker | voltage-dependence of block ([3]; between 0 mV and +60 mV): weak voltage-dependence | δ value (Woodhull equation) ([3]; between 0 mV and +60 mV, n=7): 0.16±0.01 | voltage-dependence of block ([3]; between -30 mV and 0 mV): strong voltage-dependence | toxicity [4]: 34.6 ± 2.44 mg/kg | effect on peak amplitude of outward K+ current ([5]; 10 μM): decreased the peak amplitude | inhibition at 10 µM ([5]; compared to control, n=7, read-out: inhibition of steady-state currents at the end of the depolarizing pulse of +50 mV): 41 ± 5%
